Patent US20130123323A1, “FUNGICIDAL PYRAZOLES” (E I DU PONT DE NEMOURS AND COMPANY, priority 2010, published 2013)

Experiments:
Format in all cases: in vivo
Botrytis cinerea = assay: Test A: tomato botrytis, test suspension sprayed on tomato seedlings the day before inoculation; settings: sprayed to run-off, inoculated following day, visual rating after 48 h at 20° C. + 3 days at 24° C., 100 = 100% disease control, 0 = no control, triplicate averaged
Method: General protocol for preparing test suspensions for Tests A-F: the test compounds were first dissolved in acetone in an amount equal to 3% of the final volume and then suspended at the desired concentration (in ppm) in acetone and purified water (50/50 mix) containing 250 ppm of the surfactant Trem® 014 (polyhydric alcohol esters). The resulting test suspensions were then used in Tests A-F. Each test was conducted in triplicate, and the results were averaged. Spraying a 200 ppm test suspension to the point of run-off on the test plants was the equivalent of a rate of 800 g/ha. The test suspension was sprayed to the point of run-off on tomato seedlings. The following day the seedlings were inoculated with a spore suspension of Botrytis cinerea (the causal agent of tomato botrytis) and incubated in saturated atmosphere at 20° C. for 48 h, and then moved to a growth chamber at 24° C. for 3 days, after which time visual disease ratings were made. Results for Tests A-F are given in Table A. In the Table, a rating of 100 indicates 100% disease control and a rating of 0 indicates no disease control (relative to the controls). A dash (-) indicates no test results.

Alternaria solani = assay: Test B: tomato early blight, test suspension sprayed on tomato seedlings the day before inoculation; settings: sprayed to run-off, inoculated following day, visual rating after 48 h at 27° C. + 5 days at 20° C., 100 = 100% disease control, triplicate averaged
Method: General protocol for preparing test suspensions for Tests A-F: the test compounds were first dissolved in acetone in an amount equal to 3% of the final volume and then suspended at the desired concentration (in ppm) in acetone and purified water (50/50 mix) containing 250 ppm of the surfactant Trem® 014 (polyhydric alcohol esters). The resulting test suspensions were then used in Tests A-F. Each test was conducted in triplicate, and the results were averaged. Spraying a 200 ppm test suspension to the point of run-off on the test plants was the equivalent of a rate of 800 g/ha. The test suspension was sprayed to the point of run-off on tomato seedlings. The following day the seedlings were inoculated with a spore suspension of Alternaria solani (the causal agent of tomato early blight) and incubated in a saturated atmosphere at 27° C. for 48 h, and then moved to a growth chamber at 20° C. for 5 days, after which time visual disease ratings were made. Results for Tests A-F are given in Table A. In the Table, a rating of 100 indicates 100% disease control and a rating of 0 indicates no disease control (relative to the controls). A dash (-) indicates no test results.

Septoria nodorum = assay: Test C: wheat glume blotch, test suspension sprayed on wheat seedlings the day before inoculation; settings: sprayed to run-off, inoculated following day, visual rating after 48 h at 24° C. + 9 days at 20° C., 100 = 100% disease control, triplicate averaged
Method: (§1) General protocol for preparing test suspensions for Tests A-F: the test compounds were first dissolved in acetone in an amount equal to 3% of the final volume and then suspended at the desired concentration (in ppm) in acetone and purified water (50/50 mix) containing 250 ppm of the surfactant Trem® 014 (polyhydric alcohol esters). The resulting test suspensions were then used in Tests A-F. Each test was conducted in triplicate, and the results were averaged. Spraying a 200 ppm test suspension to the point of run-off on the test plants was the equivalent of a rate of 800 g/ha. The test suspension was sprayed to the point of run-off on wheat seedlings. The following day the seedlings were inoculated with a spore suspension of Septoria nodorum (the causal agent of wheat glume blotch) and incubated in a saturated atmosphere at 24° C. for 48 h, and then moved to a growth chamber at 20° C. for 9 days, after which time visual disease ratings were made. Results for Tests A-F are given in Table A. In the Table, a rating of 100 indicates 100% disease control and a rating of 0 indicates no disease control (relative to the controls). A dash (-) indicates no test results.

Septoria tritici = assay: Test D: wheat leaf blotch, test suspension sprayed on wheat seedlings the day before inoculation; settings: sprayed to run-off, inoculated following day, visual rating after 48 h at 24° C. + 19 days at 20° C., 100 = 100% disease control, triplicate averaged
Method: as §1, with “of Septoria tritici (the causal” for “of Septoria nodorum (the causal”, “of wheat leaf blotch) and” for “of wheat glume blotch) and”, “incubated in saturated atmosphere” for “incubated in a saturated atmosphere”, “and then the seedlings were moved to” for “and then moved to”, “C. for 19 additional days, after” for “C. for 9 days, after”

[1] = system: Puccinia recondita f. sp. tritici; assay: Test E1: wheat leaf rust, wheat seedlings sprayed after inoculation; settings: wheat seedlings inoculated, 24 h + 2 days at 20° C., then sprayed to run-off; visual rating 4 days later; 100 = 100% disease control; triplicate averaged
Method: as §1, with “Wheat” for “The test suspension was sprayed to the point of run-off on wheat seedlings. The following day the”, “Puccinia recondita f. sp. tritici” for “Septoria nodorum”, “leaf rust)” for “glume blotch)”, “20°” for “24°”, “24” for “48”, “2 days. At the end of this time the test suspension was sprayed to the point of run-off on the wheat seedlings, and then the seedlings were moved to a growth chamber at 20° C. for 4” for “9”

[2] = system: Puccinia recondita f. sp. tritici; assay: Test E2: wheat leaf rust, test suspension sprayed on wheat seedlings the day before inoculation; settings: sprayed to run-off, inoculated following day, visual rating after 24 h + 6 days at 20° C., 100 = 100% disease control, triplicate averaged
Method: as §1, with “Puccinia recondita f. sp. tritici” for “Septoria nodorum”, “leaf rust)” for “glume blotch)”, “20°” for “24°”, “24” for “48”, “6” for “9”

[3] = system: Blumeria graminis f. sp. tritici; assay: Test F: wheat powdery mildew, test suspension sprayed on wheat seedlings the day before inoculation; settings: sprayed to run-off, inoculated with spore dust following day, visual rating after 8 days at 20° C., 100 = 100% disease control, triplicate averaged
Method: as §1, with “spore dust” for “spore suspension”, “of Blumeria graminis f. sp. tritici (also known as Erysiphe graminis f. sp. tritici, the” for “of Septoria nodorum (the”, “wheat powdery mildew)” for “wheat glume blotch)”, “in” for “in a saturated atmosphere at 24° C. for 48 h, and then moved to”, “for 8” for “for 9”

## Cc1nn(C)c(C(F)c2ccc(F)cc2F)c1-c1ccc(F)cc1Cl (centres unmarked) [Compound 1, 4-(2-Chloro-4-fluorophenyl)-5-[(2,4-difluorophenyl)fluoromethyl]-1,3-dimethyl-1H-pyrazole]
Botrytis cinerea
  Test A disease control rating: 100%
Alternaria solani
  Test B disease control rating: 83%
Septoria nodorum
  Test C disease control rating: 0%
Septoria tritici
  Test D disease control rating: 98%
[1]
  Test E1 disease control rating: 40%
[2]
  Test E2 disease control rating: 99%
[3]
  Test F disease control rating: 69%

## Cc1nn(C)c(C(F)c2ccc(F)cc2F)c1-c1c(F)cccc1F (centres unmarked) [Compound 4]
Botrytis cinerea
  Test A disease control rating: 99%
Alternaria solani
  Test B disease control rating: 98%
Septoria nodorum
  Test C disease control rating: 0%
Septoria tritici
  Test D disease control rating: 52%
[1]
  Test E1 disease control rating: 66%
[2]
  Test E2 disease control rating: 18%
[3]
  Test F disease control rating: 0%

## COc1cc(F)c(C(F)c2c(-c3c(F)cccc3F)c(C)nn2C)c(F)c1 (centres unmarked) [Compound 3]
Botrytis cinerea
  Test A disease control rating: 100%
Alternaria solani
  Test B disease control rating: 46%
Septoria nodorum
  Test C disease control rating: 0%
Septoria tritici
  Test D disease control rating: 100%
[1]
  Test E1 disease control rating: 98%
[2]
  Test E2 disease control rating: 100%
[3]
  Test F disease control rating: 99%

## Cc1nn(C)c(C(Cl)c2ccc(F)cc2Cl)c1-c1c(F)cccc1Cl (centres unmarked) [Compound 7]
Septoria tritici
  Test D disease control rating: 100%
[2]
  Test E2 disease control rating: 100%
[3]
  Test F disease control rating: 100%

## Cc1nn(C)c(C(F)c2ccc(F)cc2Cl)c1-c1c(F)cccc1Cl (centres unmarked) [Compound 6]
Septoria tritici
  Test D disease control rating: 96%
[2]
  Test E2 disease control rating: 98%
[3]
  Test F disease control rating: 87%

## Cc1nn(C)c(C(Cl)c2ccc(F)cc2F)c1-c1c(F)cccc1F (centres unmarked) [Compound 5]
Botrytis cinerea
  Test A disease control rating: 100%
Alternaria solani
  Test B disease control rating: 100%
Septoria nodorum
  Test C disease control rating: 89%
Septoria tritici
  Test D disease control rating: 100%
[1]
  Test E1 disease control rating: 9%
[2]
  Test E2 disease control rating: 100%
[3]
  Test F disease control rating: 100%

## Cc1nn(C)c(C(Cl)c2ccc(F)cc2F)c1-c1ccc(F)cc1Cl (centres unmarked) [Compound 2, 5-[Chloro(2,4-difluorophenyl)methyl]-4-(2-chloro-4-fluorophenyl)-1,3-dimethyl-1H-pyrazole]
Botrytis cinerea
  Test A disease control rating: 99%
Alternaria solani
  Test B disease control rating: 0%
Septoria nodorum
  Test C disease control rating: 0%
Septoria tritici
  Test D disease control rating: 100%
[1]
  Test E1 disease control rating: 0%
[2]
  Test E2 disease control rating: 94%
[3]
  Test F disease control rating: 0%
